# pKi: −log10 of the molar value. Calls of active or inactive are those of the source. No cut-off for these calls is given here.
# Key:
# [1] = Displacement of [125I]IMPY from amyloid beta (1 to 42) after 3 hrs by gamma counting
# [2] = system: Brain; experiment: Ratio of drug level in brain after 2 mins to brain after 60 mins in ddY mouse […] at 185 to 370 kBq, iv; type: ADME, organism-based; conditions: in vivo
# [3] = system: Blood; experiment: Biodistribution in ddY mouse blood at 185 to 370 kBq, iv after 60 mins by gamma counting; type: ADME, organism-based; conditions: in vivo, 1 h
# [4] = system: Brain; experiment: Biodistribution in wild type mouse brain at 11.1 MBq, iv after 30 mins by autoradiography; type: ADME, organism-based; conditions: in vivo, 0.5 h
# [5] = system: Brain; experiment: Biodistribution in ddY mouse brain at 185 to 370 kBq, iv after 10 mins by gamma counting; type: ADME, organism-based; conditions: in vivo
# [6] = system: Bone; experiment: Biodistribution in ddY mouse bone at 185 to 370 kBq, iv after 30 mins by gamma counting; type: ADME, organism-based, Bone element; conditions: in vivo, 0.5 h
# [7] = system: Brain; experiment: Biodistribution in ddY mouse brain at 185 to 370 kBq, iv after 30 mins by gamma counting; type: ADME, organism-based; conditions: in vivo, 0.5 h
# [8] = system: Blood; experiment: Biodistribution in ddY mouse blood at 185 to 370 kBq, iv after 10 mins by gamma counting; type: ADME, organism-based; conditions: in vivo
# [9] = system: Blood; experiment: Biodistribution in ddY mouse blood at 185 to 370 kBq, iv after 30 mins by gamma counting; type: ADME, organism-based; conditions: in vivo, 0.5 h
# [10] = system: Brain; experiment: Biodistribution in Tg2576 transgenic mouse brain at 11.1 MBq, iv after 30 mins by autoradiography; type: ADME, organism-based; conditions: in vivo, 0.5 h
# [11] = system: Bone; experiment: Biodistribution in ddY mouse bone at 185 to 370 kBq, iv after 2 mins by gamma counting; type: ADME, organism-based, Bone element; conditions: in vivo
# [12] = system: Brain; experiment: Biodistribution in ddY mouse brain at 185 to 370 kBq, iv after 60 mins by gamma counting; type: ADME, organism-based; conditions: in vivo, 1 h
# [13] = system: Blood; experiment: Biodistribution in ddY mouse blood at 185 to 370 kBq, iv after 2 mins by gamma counting; type: ADME, organism-based; conditions: in vivo
# [14] = system: Brain; experiment: Biodistribution in ddY mouse brain at 185 to 370 kBq, iv after 2 mins by gamma counting; type: ADME, organism-based; conditions: in vivo
# [15] = system: Bone; experiment: Biodistribution in ddY mouse bone at 185 to 370 kBq, iv after 60 mins by gamma counting; type: ADME, organism-based, Bone element; conditions: in vivo, 1 h
# [16] = system: Bone; experiment: Biodistribution in ddY mouse bone at 185 to 370 kBq, iv after 10 mins by gamma counting; type: ADME, organism-based, Bone element; conditions: in vivo
# [17] = molecular target: Amyloid-beta precursor protein (Homo sapiens) (UniProt P05067); experiment: Binding affinity to beta amyloid plaques in human Alzheimer's disease brain at 444 kBq/50 uL after 1 hr by autoradiography; conditions: tested as the 18F-labelled form
# [18] = molecular target: Amyloid-beta precursor protein (Homo sapiens) (UniProt P05067); experiment: Binding affinity to beta amyloid plaques in normal human brain at 444 kBq/50 uL after 1 hr by autoradiography; conditions: tested as the 18F-labelled form
# [19] = system: Lung; experiment: Biodistribution in ddY mouse lung at 185 to 370 kBq, iv after 2 mins by gamma counting; type: ADME, organism-based; conditions: in vivo
# [20] = system: Heart; experiment: Biodistribution in ddY mouse […] at 185 to 370 kBq, iv after 30 mins by gamma counting; type: ADME, organism-based; conditions: in vivo, 0.5 h
# [21] = system: Spleen; experiment: Biodistribution in ddY mouse spleen at 185 to 370 kBq, iv after 2 mins by gamma counting; type: ADME, organism-based; conditions: in vivo
# [22] = system: Intestine; experiment: Biodistribution in ddY mouse intestine at 185 to 370 kBq, iv after 30 mins by gamma counting; type: ADME, organism-based; conditions: in vivo, 0.5 h
# [23] = system: Stomach; experiment: Biodistribution in ddY mouse stomach assessed per organ at 185 to 370 kBq, iv after 60 mins by gamma counting; type: ADME, organism-based; conditions: in vivo, 1 h
# [24] = system: Lung; experiment: Biodistribution in ddY mouse lung at 185 to 370 kBq, iv after 60 mins by gamma counting; type: ADME, organism-based; conditions: in vivo, 1 h
# [25] = system: Kidney; experiment: Biodistribution in ddY mouse kidney at 185 to 370 kBq, iv after 60 mins by gamma counting; type: ADME, organism-based; conditions: in vivo, 1 h
# [26] = system: Kidney; experiment: Biodistribution in ddY mouse kidney at 185 to 370 kBq, iv after 30 mins by gamma counting; type: ADME, organism-based; conditions: in vivo, 0.5 h
# [27] = system: Pancreas; experiment: Biodistribution in ddY mouse pancreas at 185 to 370 kBq, iv after 30 mins by gamma counting; type: ADME, organism-based; conditions: in vivo, 0.5 h
# [28] = system: Spleen; experiment: Biodistribution in ddY mouse spleen at 185 to 370 kBq, iv after 30 mins by gamma counting; type: ADME, organism-based; conditions: in vivo, 0.5 h
# [29] = system: Spleen; experiment: Biodistribution in ddY mouse spleen at 185 to 370 kBq, iv after 10 mins by gamma counting; type: ADME, organism-based; conditions: in vivo
# [30] = system: Pancreas; experiment: Biodistribution in ddY mouse pancreas at 185 to 370 kBq, iv after 10 mins by gamma counting; type: ADME, organism-based; conditions: in vivo
# [31] = system: Kidney; experiment: Biodistribution in ddY mouse kidney at 185 to 370 kBq, iv after 2 mins by gamma counting; type: ADME, organism-based; conditions: in vivo
# [32] = system: Spleen; experiment: Biodistribution in ddY mouse spleen at 185 to 370 kBq, iv after 60 mins by gamma counting; type: ADME, organism-based; conditions: in vivo, 1 h
# [33] = system: Stomach; experiment: Biodistribution in ddY mouse stomach assessed per organ at 185 to 370 kBq, iv after 10 mins by gamma counting; type: ADME, organism-based; conditions: in vivo
# [34] = system: Lung; experiment: Biodistribution in ddY mouse lung at 185 to 370 kBq, iv after 10 mins by gamma counting; type: ADME, organism-based; conditions: in vivo
# [35] = system: Stomach; experiment: Biodistribution in ddY mouse stomach assessed per organ at 185 to 370 kBq, iv after 2 mins by gamma counting; type: ADME, organism-based; conditions: in vivo
# [36] = system: Pancreas; experiment: Biodistribution in ddY mouse pancreas at 185 to 370 kBq, iv after 2 mins by gamma counting; type: ADME, organism-based; conditions: in vivo
# [37] = system: Intestine; experiment: Biodistribution in ddY mouse intestine at 185 to 370 kBq, iv after 10 mins by gamma counting; type: ADME, organism-based; conditions: in vivo
# [38] = system: Heart; experiment: Biodistribution in ddY mouse […] at 185 to 370 kBq, iv after 2 mins by gamma counting; type: ADME, organism-based; conditions: in vivo
# [39] = system: Stomach; experiment: Biodistribution in ddY mouse stomach assessed per organ at 185 to 370 kBq, iv after 30 mins by gamma counting; type: ADME, organism-based; conditions: in vivo, 0.5 h
# [40] = system: Intestine; experiment: Biodistribution in ddY mouse intestine at 185 to 370 kBq, iv after 2 mins by gamma counting; type: ADME, organism-based; conditions: in vivo
# [41] = system: Pancreas; experiment: Biodistribution in ddY mouse pancreas at 185 to 370 kBq, iv after 60 mins by gamma counting; type: ADME, organism-based; conditions: in vivo, 1 h
# [42] = system: Kidney; experiment: Biodistribution in ddY mouse kidney at 185 to 370 kBq, iv after 10 mins by gamma counting; type: ADME, organism-based; conditions: in vivo
# [43] = system: Liver; experiment: Biodistribution in ddY mouse liver at 185 to 370 kBq, iv after 2 mins by gamma counting; type: ADME, organism-based; conditions: in vivo
# [44] = system: Intestine; experiment: Biodistribution in ddY mouse intestine at 185 to 370 kBq, iv after 60 mins by gamma counting; type: ADME, organism-based; conditions: in vivo, 1 h
# [45] = system: Heart; experiment: Biodistribution in ddY mouse […] at 185 to 370 kBq, iv after 10 mins by gamma counting; type: ADME, organism-based; conditions: in vivo
# [46] = system: Lung; experiment: Biodistribution in ddY mouse lung at 185 to 370 kBq, iv after 30 mins by gamma counting; type: ADME, organism-based; conditions: in vivo, 0.5 h
# [47] = system: Liver; experiment: Biodistribution in ddY mouse liver at 185 to 370 kBq, iv after 10 mins by gamma counting; type: ADME, organism-based; conditions: in vivo
# [48] = system: Liver; experiment: Biodistribution in ddY mouse liver at 185 to 370 kBq, iv after 30 mins by gamma counting; type: ADME, organism-based; conditions: in vivo, 0.5 h
# [49] = system: Liver; experiment: Biodistribution in ddY mouse liver at 185 to 370 kBq, iv after 60 mins by gamma counting; type: ADME, organism-based; conditions: in vivo, 1 h
# [50] = system: Heart; experiment: Biodistribution in ddY mouse […] at 185 to 370 kBq, iv after 60 mins by gamma counting; type: ADME, organism-based; conditions: in vivo, 1 h
# Sequence of Amyloid-beta precursor protein (Homo sapiens) (P05067 whole entry): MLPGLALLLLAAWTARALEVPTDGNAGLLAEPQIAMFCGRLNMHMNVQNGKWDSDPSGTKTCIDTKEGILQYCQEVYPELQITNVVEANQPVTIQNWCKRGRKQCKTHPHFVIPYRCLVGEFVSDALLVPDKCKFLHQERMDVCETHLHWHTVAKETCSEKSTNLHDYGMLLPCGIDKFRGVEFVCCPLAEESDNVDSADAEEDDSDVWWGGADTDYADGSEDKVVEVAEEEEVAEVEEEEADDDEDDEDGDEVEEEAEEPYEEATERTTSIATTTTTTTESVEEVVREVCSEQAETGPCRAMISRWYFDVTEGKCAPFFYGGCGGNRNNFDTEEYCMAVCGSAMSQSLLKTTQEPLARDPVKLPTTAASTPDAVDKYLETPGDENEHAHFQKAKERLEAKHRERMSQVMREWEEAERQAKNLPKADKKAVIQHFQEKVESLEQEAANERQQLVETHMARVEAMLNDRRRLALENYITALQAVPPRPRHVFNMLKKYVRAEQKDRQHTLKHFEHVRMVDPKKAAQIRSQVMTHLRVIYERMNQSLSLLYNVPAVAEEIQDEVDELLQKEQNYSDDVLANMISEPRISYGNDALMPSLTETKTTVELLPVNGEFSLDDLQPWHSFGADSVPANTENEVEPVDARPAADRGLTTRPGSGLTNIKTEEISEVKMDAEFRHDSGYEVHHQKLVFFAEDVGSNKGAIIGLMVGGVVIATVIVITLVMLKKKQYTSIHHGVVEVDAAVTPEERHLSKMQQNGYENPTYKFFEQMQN
structure (smiles),measurement,setting,value
CN(C)c1ccc(-c2cc3cc(OCCOCCOCCF)ccc3o2)cc1,pKi,[1],8.70
CNc1ccc(/C=C/c2ccc(OCCOCCOCC[18F])nc2)cc1 [FLORBETAPIR F 18],Ratio,[2],3.8
CN(C)c1ccc(-c2cc3cc(OCCOCCOCCF)ccc3o2)cn1,pKi,[1],9.02
CNc1ccc(-c2cc3cc(OCCOCCOCC[18F])ccc3o2)cc1,Drug uptake,[3],7.33 % ID/g
same,Drug uptake,[4],Not Active
same,Drug uptake,[5],6.43 % ID/g
same,Drug uptake,[6],2.07 % ID/g
same,Drug uptake,[7],4.26 % ID/g
same,Drug uptake,[8],4.17 % ID/g
same,Drug uptake,[9],5.33 % ID/g
same,Drug uptake,[10],Active
same,Drug uptake,[11],1.57 % ID/g
same,Drug uptake,[12],3.87 % ID/g
same,Drug uptake,[13],4.1 % ID/g
same,Drug uptake,[14],8.18 % ID/g
same,Drug uptake,[15],3.3 % ID/g
same,Ratio,[2],2.11
same,Drug uptake,[16],1.98 % ID/g
CNc1ccc(-c2cc3cc(OCCOCCOCCF)ccc3o2)cn1,pKi,[1],8.62
same,Activity,[17],Active
CNc1ccc(/C=C/c2ccc(OCCOCCOCC[18F])cc2)cc1 [FLORBETABEN F18],Ratio,[2],4.8
CNc1ccc(-c2cc3cc(OCCOCCOCCF)ccc3o2)cc1,Activity,[18],inactive
same,pKi,[1],8.41
CNc1ccc(-c2nc3ccc(O)cc3s2)cc1 [PITTSBURGH COMPOUND B UNLABELLED],pKi,[1],8.05
CN(C)c1ccc(-c2cc3cc(OCCOCCOCC[18F])ccc3o2)cc1,Drug uptake,[3],3.41 % ID/g
same,Drug uptake,[5],5.66 % ID/g
same,Drug uptake,[6],3.63 % ID/g
same,Drug uptake,[7],3.14 % ID/g
same,Drug uptake,[8],2.48 % ID/g
same,Drug uptake,[9],2.68 % ID/g
same,Drug uptake,[11],1.19 % ID/g
same,Drug uptake,[12],2.8 % ID/g
same,Drug uptake,[13],1.64 % ID/g
same,Drug uptake,[14],2.88 % ID/g
same,Drug uptake,[15],2.74 % ID/g
same,Ratio,[2],1.02
same,Drug uptake,[16],1.76 % ID/g
CNc1ccc(-c2cc3cc(OCCOCCOCC[18F])ccc3o2)cn1,Drug uptake,[19],5.68 % ID/g
same,Drug uptake,[20],3.59 % ID/g
same,Drug uptake,[3],2.42 % ID/g
same,Drug uptake,[4],Not Active
same,Drug uptake,[5],4.86 % ID/g
same,Drug uptake,[6],1.79 % ID/g
same,Drug uptake,[21],2.91 % ID/g
same,Drug uptake,[22],24.1 % ID/g
same,Drug uptake,[23],22.5 %ID
same,Drug uptake,[24],2.88 % ID/g
same,Drug uptake,[25],3.7 % ID/g
same,Drug uptake,[26],7.83 % ID/g
same,Drug uptake,[7],4.03 % ID/g
same,Drug uptake,[27],4.91 % ID/g
same,Drug uptake,[28],3.14 % ID/g
same,Drug uptake,[29],2.15 % ID/g
same,Drug uptake,[30],2.68 % ID/g
same,Drug uptake,[31],11.9 % ID/g
same,Drug uptake,[8],3.02 % ID/g
same,Drug uptake,[9],2.66 % ID/g
same,Drug uptake,[32],2.24 % ID/g
same,Drug uptake,[10],Active
same,Drug uptake,[33],7.55 %ID
same,Drug uptake,[34],3.12 % ID/g
same,Drug uptake,[35],3.73 %ID
same,Drug uptake,[36],5.14 % ID/g
same,Drug uptake,[37],8.39 % ID/g
same,Drug uptake,[38],5.19 % ID/g
same,Drug uptake,[39],18.8 %ID
same,Drug uptake,[11],2.65 % ID/g
same,Drug uptake,[40],4.24 % ID/g
same,Drug uptake,[41],2.55 % ID/g
same,Drug uptake,[12],3.15 % ID/g
same,Drug uptake,[42],6.22 % ID/g
same,Drug uptake,[43],16.8 % ID/g
same,Drug uptake,[44],30.9 % ID/g
same,Drug uptake,[13],4.96 % ID/g
same,Drug uptake,[45],2.51 % ID/g
same,Drug uptake,[14],7.38 % ID/g
same,Drug uptake,[46],4.34 % ID/g
same,Drug uptake,[15],1.72 % ID/g
same,Ratio,[2],2.34
same,Drug uptake,[47],17.5 % ID/g
same,Drug uptake,[48],19.2 % ID/g
same,Drug uptake,[49],8.71 % ID/g
same,Drug uptake,[16],1.63 % ID/g
same,Drug uptake,[50],2.6 % ID/g
CN(C)c1ccc(-c2cc3cc(OCCOCCOCC[18F])ccc3o2)cn1,Ratio,[2],2.11
